{"source": "patent US20060134630A1", "about": "“Method for screening for an antimicrobial polypeptide” (Novozymes A/S, priority 2002, published 2006)", "key": {"[1]": {"system": "Fusarium longypes", "experiment": "Growth inhibition of Fusarium longypes by AFP (filter-agar plate treated with chloroform)", "type": "cell-based", "design": "key: +: whether or not a clearing zone is present in the top-layer; −: whether or not a clearing zone is present in the top-layer", "settings": "Fusarium longypes top-layer over origami colonies, 0.1% arabinose, 3 days room temperature", "from_the_text": "E. coli origami cells were transformed with pHHA900-AFP and pHHA, respectively and cultured overnight at 37 degrees C. on LB-agar plates containing tetracycline (tet), kanamycin (kan) and ampicillin (amp) to select for viable origami cells comprising said constructs. Two viable origami colonies containing each of the constructs were selected and used to inoculate 3 other LB-agar plates with tet, kan and amp before culturing said plates for 3 days at 37 degrees C. A cellulose acetate filter (Schleider & Schull) was placed on top of each of the plates and the colonies were striped off with the filters. The filters were then place on new LB-agar plates containing 0.1% arabinose with the colonies facing up to induce expression of the AFP. The filter-agar, 0.1% arabinose plates were incubated overnight at 37 degrees C. before treating them with chloroform as described in example 1. After this a top-layer of 6 ml agar comprising approximately […] Fusarium longypes were poured on top of the chloroform treated filter-agar plate. The plates with top-layer were then incubated for 3 days at room temperature. The pink color of the Fusarium longypes mycelium facilitated the detection of the clearing zones in the top layer. […]"}, "[2]": {"system": "Fusarium longypes", "experiment": "Growth inhibition of Fusarium longypes by AFP diffused into solid media (filter removed)", "type": "cell-based", "design": "key: +: whether or not a clearing zone is present in the top-layer; −: whether or not a clearing zone is present in the top-layer", "settings": "Fusarium longypes top-layer, acetate filter removed, 0.1% arabinose, 3 days room temperature", "from_the_text": "The method used in this example is similar to the method described in example 14 with the difference that in this example the acetate filter containing the E.coli origami cells is removed from the arabinose plate before it is overlaid with the fungus Fusarium longypes which is used as an indicator strain.\nAdditionally, this example is very similar to example 4, with the exception that in the present example AFP is the antimicrobial polypeptide (instead of Plectasin in example 4) and Fusarium longypes is the indicator cells (instead of Bacillus subtilis in example 4). As described in example 14, E. coli origami cells were transformed with pHHA900-AFP and pHHA, respectively and cultured overnight at 37 degrees C on LB-agar plates containing tetracycline (tet), kanamycin (kan) and ampicillin (amp) to select for viable E.coli origami cells comprising said constructs. Two viable E.coli origami colonies containing each of the constructs were selected and used to inoculate a LB-agar plate with tet, kan and amp before culturing said plate for 3 days at 37 degrees C. A cellulose acetate filter was placed on top of the plate and the colonies were striped off with the filter. The filter was then placed on a new LB-agar plate containing 0.1% arabinose with the colonies facing up to induce expression of the AFP. The filter-agar, 0.1% arabinose plate was incubated overnight at 37 degrees C. […]"}}, "data": [{"substance": "pHHA900-AFP: antifungal protein derived from Aspergillus giganteus, expressed in the cytoplasm (ATYNGKCYKKDNICKYKAQSGKTAICKCYVKKCPRDGAKCEFDSYKGKCYC; UniProt P17737 44-94, looked up)", "values": [{"measurement": "Clearing zone +/−, Plate treated with chloroform", "setting": "[1]", "value": "+"}, {"measurement": "Clearing zone +/−", "setting": "[2]", "value": "+"}]}]}
